The text below walks through data of US8859235B2, “Methods in cell cultures, and related inventions, employing certain additives” (priority 2009, dated 2014).

In one experiment the test system is P. pastoris. The following applies: 4-10 mM in the medium; Xiao, Appl. Microbiol. Biotechnol. (2006); cited from earlier work.
For a further experiment, the system named is E. coli HM125. In words: Growth and expression of FimH-CRD in E. coli HM125, shake flask cultivation in mineral medium. Type of experiment: cell-based, Escherichia coli. The following applies: for mg FimH/g cell: control 0.81; for FimH / Cell pellet: mean of triplicate; for FimH: control 6.48 ± 0.36; for Cell pellet: control 7.99 ± 0.25. The text has this:
Standard molecular techniques are used for the cloning of the FimH carbohydrate recognition domain (FimH-CRD). The plasmid pfimHs-trc, encoding FimH lectin domain (1-156 amino acids M. Vetsch P et. al. 2002—J. Mol. Biol. 322: 827-840), is kindly provided by R. Glockshuber (ETH Zürich, Switzerland). The FimH-CRD fragment is amplified by polymerase chain reaction using specific forward primer containing the restriction site NdeI and a specific reverse primer containing the thrombin cleavage site and the restriction site XhoI, respectively. The insert is ligated into the corresponding cloning site in pET21b. The resulting contrast is named pET21b-FimH-CRD.
Precultures are prepared in 25 mL sterile LB medium [Tryptone (10.0 g/L), yeast extract (5.0 g/L), NaCl (10.0 g/L), ampicillin 100 (mg/L); adjusted to pH 7.0 with NaOH]. Cultures are inoculated with a glycerol stock stored at −80° C. of the protease deficient strain E. coli HM125 (Meerman H J & Georgiou G. 1994. Biotechnology (NY) 2, 1107-1110) harboring the plasmid pET21b-FimH-CRD Vector. Precultures are incubated at 37° C. for 10-12 h. Experimental cultures are performed in a volume of 500 mL of modified M9 medium [Na2HPO4×7H2O (12.8 g/L), KH2PO4 (3 g/L), NaCl (0.5 g/L), NH4Cl (1 g/L), D-glucose (4 g/L), MgSO4 (0.12 g/L), CaCl2 (0.01 g/L) and vitamins (in mg/L): riboflavin (0.1), choline chloride (1), folic Acid (1), niacinamide (1), p-amino benzoic acid (1), pyridoxal-HCl (1), thiamine-HCl (1), myo-lnositol (2)] supplemented with 100 mg/L ampicillin. Cultures are inoculated with 5 mL of the preoculture and grown at 30° C. and 150 rpm) until the optical density at 600 nm (0D600) reached 0.8-1.0. Then 1 mM IPTG and the stabilizer(s) (obligatory additive) according to the invention are added to final concentrations of 5, 10 and 20 mM as indicated from sterile stock solutions and the cultures are grown overnight. Then the cells are cooled on ice for 5 min and harvested by centrifugation at 5′000 rpm for 20 min at 4° C. Cell are harvested by centrifugation and biomass is quantified by weighing the wet cell pellets. The pellet is suspended in a cold solution of 50 mM Tris-HCl, pH 7.5, 150 mM NaCl, 5 mM EDTA, 1 mg/mL polymyxin B sulfate and stirred for two hours at 4° C. After centrifugation at 11′000 rpm for 20 min at 4° C., the supernatant (periplasmic extract) is dialyzed overnight against 50 mM NaH2PO4, 300 mM NaCl and 10 mM imidazole, pH 8 (binding buffer) and applied to a Ni-NTA column (Sigma, Buchs, Switzerland) attached to a BioLogic fast protein liquid chromatography system (BioRad, Reinach BL, Switzerland). The column is washed with binding buffer and afterwards eluted with 50 mM NaH2PO4, 300 mM NaCl and 250 mM imidazole, pH 8 (elution buffer). Fractions containing FimH-CRD-Th-6H is are pooled and dialyzed against water and then against 20 mM HEPES, 150 mM NaCl and 1 mM CaCl2, pH 7.4.
The concentration of protein is determined by HPLC method (Agilent 1100/1200 series) using BSA as standard (Sigma). The column Poros R1/10 10 μm (100×2 mm, Morvay Analytik) is kept at 60° C.; eluents are A: 0.1% trifluoroacetic acid (TFA) in H2O and B: 90% MeCN+0.09% TFA. A gradient of 20% B to 90% B is run within 20 min at a flow rate of 0.2 mL/min. The detection is monitored at 210 nm. Results are compiled in the following tables 5 and 6.

The next experiment concerns human cancer cells. The following applies: due to SAPK and p38 MAPK signal pathway modulation; US 2004/024025; cited from earlier work.

Turning to `O=C1O[C@H]([C@@H](O)CO)C(O)=C1O` [Ascorbic acid], in the experiment on P. pastoris, the “Hirudin yield and quality” value is recorded as “increased”.

On to `CC1(C)CCCC(C)(C)N1[O]` [TEMPO, 2,2,6,6-Tetramethyl-1-piperidinyloxy radical, reference compound], for which the “mg FimH/g cell” value with E. coli HM125 (additive 5 mM) turned out to be 1.14 mg FimH/g cell; in the experiment with E. coli HM125 (additive 10 mM), 1.15 mg FimH/g cell; in the experiment on E. coli HM125 (additive 20 mM), 1.26 mg FimH/g cell. The “FimH” value turned out to be 8.85 ± 0.21 mg/L with E. coli HM125 (additive 5 mM), 8.61 ± 0.14 mg/L in the experiment on E. coli HM125 (additive 10 mM) and 8.26 ± 0.54 mg/L in the experiment on E. coli HM125 (additive 20 mM). The “Cell pellet” value turned out to be 7.78 ± 0.45 g/L in the experiment on E. coli HM125 (additive 5 mM), 7.44 ± 0.32 g/L in the experiment with E. coli HM125 (additive 10 mM) and 6.54 ± 0.2 g/L in the experiment on E. coli HM125 (additive 20 mM). For the same compound, the “Apoptosis in human cancer cells” value in the experiment on human cancer cells is reported as “increased apoptosis”.
